# Measured values published in paper PMC8214221, “Sequence determinants in the cathelicidin LL-37 that promote inflammation via presentation of RNA to scavenger receptors” (The Journal of Biological Chemistry, 2021).
# Where two headings read alike, the source gives them in different places. Residues, ends and D or L forms follow the SMILES beside them.
# Experiments:
# [1] = test system: normal human epidermal keratinocytes (NHEKs); experiment: LDH release cytotoxicity assay in keratinocytes; assay type: cell-based; conditions: minimal concentration giving 50% LDH release by NHEKs
# Procedure, shortened: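 Normal human epidermal keratinocytes were exposed to LL-34 parent and alanine-substituted peptides. Cytotoxicity was read as LDH release in fresh culture supernatants after treatment, using a commercial kit, and reported as the minimal concentration showing toxicity.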
# [2] = test system: methicillin-resistant Staphylococcus aureus strain USA300; assay type: cell-based; conditions: for Antimicrobial potency against S. aureus USA300 compared with LL-34 parent peptide: MIC comparison with parent (MIC 25 μM), 18 h
# Excerpt: Since LL-34 was the minimal truncation mutant of LL-37 that retained both antimicrobial and immune modulatory activity, we prepared a series of synthetic peptides with sequential substitutions of alanine at each amino acid position of the LL-34 parent peptide (Table 1). We compared the minimum inhibitory concentration (MIC) for the LL-34 parent peptide and the alanine mutants (LL-34 peptides—L1A and R34A) against methicillin-resistant Staphylococcus aureus strain USA300 (Fig. 1A). LL-34 peptides were incubated at concentrations of 0 to 100 μM with bacteria. The minimal concentration at which no growth was observed was noted after 18 h of incubation. […] Because of these changes in the MIC against S. aureus between the mutants, we investigated the effective toxicity profile of the peptides in normal human epidermal keratinocytes (NHEKs) by lactate dehydrogenase (LDH) release assay (Table 1). […] Most other peptides were cytotoxic at a minimal concentration of 10 μM, whereas LL-34—K15A was toxic at a concentration of 2.5 μM.
# Methicillin-resistant S. aureus USA300 and methicillin-sensitive S. aureus SA113 (American Type Culture Collection 35556) were cultured in 3% tryptic soy broth overnight at 37 °C with shaking at 250 rpm. GAS M49 strain NZ131 was cultured in Todd Hewitt broth supplemented with 1% yeast extract overnight at 37 °C without shaking. E. coli R1 strain RS218 was cultured in LB broth overnight at 37 °C with shaking at 250 rpm. MIC values were determined using a round-bottom 96-well microdilution method with RPMI cell culture media (as a source of Ca^2+ and Mg^2+) supplemented with tryptic soy broth, Todd Hewitt broth/yeast extract, or LB to facilitate growth of the respective bacterial strains. Overnight bacterial cultures were subcultured into fresh broth and grown to midlate log phase indicated by an absorbance at 600 nm value between 0.8 and 1.0 for each bacterial strain. The absorbance was then normalized to provide a concentration of 1 × 10^7 colony-forming units/ml in RPMI medium. The LL-34 parent and alanine scan mutants were serially diluted into the 96-well microtiter plates containing prewarmed RPMI bacterial growth medium. A 10 μl aliquot of the midlate log phase bacteria was inoculated into the 96-well microtiter plates that contained 95 μl of RPMI medium with or without the LL-34 peptide dilutions and incubated for 16 to 18 h at […] with shaking at 200 rpm. Inhibition of growth was determined by measuring the absorbance at 600 nm readings of each well using a microplate reader (Infinite M200 Pro; Tecan). The MIC of each bacterial strain was determined by the lowest peptide concentration that inhibited more than 80% bacterial growth.
# [3] = test system: NHEKs, IL-6 secretion in response to U1 dsRNA; experiment: IL-6 secretion ELISA in NHEKs; assay type: cell-based, human; conditions: U1 dsRNA 2.5 μg/ml + peptide 2 μM, 18 h, n = 3
# Description: Protein levels of human IL-6 were analyzed from cell supernatant with ELISA (n = 3). Corresponding MIC values of LL-34 peptides L1A–R34A against Staphylococcus aureus USA300 are shown in the heat map. B, human dermal endothelial cells (HDMECs) were treated with either U1 dsRNA (2.5 μg/ml) or a combination of U1 dsRNA (2.5 μg/ml) and LL-34 peptides (Pep 1–Pep 34 and Pep–parent LL-34) at 2 μM for 18 h. IL-6 ELISA results are shown (n = 3). Green bars denote loss of IL-6 protein secretion compared with parent control shown in red. C, helical wheel plot for LL-34. Amino acids with green circles denote specific residues where replacement with an alanine caused the loss of IL-6 secretion compared with parent LL-34 peptide in NHEKs cotreated with U1 dsRNA. D, in the helical wheel plot for LL-34, circled green amino acids indicate that a substitution caused a loss of vetting in HDMEC. E–H, NHEKs were treated with LL-34-parent peptide (LL-34-P), LL-34-F5A, LL-34-I24A, LL-34-F27A, and LL-34-L31A at 2 μM, either individually or in combination with U1 dsRNA (2.5 μg/ml) for 8 h. Gene expression of IL-6, IFNB1, TSLP, and CXCL10 was assessed with qRT-PCR. GAPDH was used as a reference gene (n = 3) (∗p < 0.05; ∗∗∗∗p < 0.0001). One way-ANOVA was used. IL-6, interleukin 6; LL-34, 34-amino acid peptide; MIC, minimum inhibitory concentration, ns, not significant.
# We hypothesized that sequential replacement of each amino acid in LL-34 peptide with a neutral amino acid alanine might reveal the amino acid residues critical for its ability to induce inflammation in response to U1 dsRNA. First, we treated NHEKs and human dermal microvascular endothelial cells (HDMECs) with LL-34 parent peptide and each of the 34 mutants at 2 μM for 18 h and measured the secretion of interleukin 6 (IL-6) in the supernatant by ELISA (Fig. S1, A and B). […] We then treated both NHEKs and HDMECs with a combination of U1 dsRNA (2.5 μg/ml) and the LL-34 parent/mutant peptides at 2 μM for 18 h and measured IL-6 secretion (Fig. 1, A–C). […] A similar pattern of IL-6 release was observed when HDMECs were treated with the peptide library and U1 dsRNA (Fig. 1B).
# Cell culture supernatant was frozen at −80 °C until use for analysis. ELISA was performed with sandwich ELISA kits (R&D Systems) and quantified on a Spectramax Absorbance reader (Molecular Biosystems). Data were analyzed with GraphPad.
Structure (SMILES),Minimal cytotoxic concentration in NHEK (LD50) [1],Antimicrobial potency against S. aureus USA300 compared with LL-34 parent peptide [2],"IL-6 protein secretion, cotreatment with U1 dsRNA, vs U1 dsRNA + LL-34 parent [3]",Antimicrobial potency against S. aureus USA300 compared with LL-34 parent peptide ([2]; listed as IL3a),"MIC against S. aureus USA300 ([2]; USA300, 18 h)"
CC[C@H](C)[C@H](NC(=O)[C@H](CCCCN)NC(=O)[C@H](CCC(=O)O)NC(=O)[C@H](CCCCN)NC(=O)[C@H](CO)NC(=O)[C@H](CCCCN)NC(=O)[C@H](CCCNC(=N)N)NC(=O)[C@H](Cc1ccccc1)NC(=O)[C@H](Cc1ccccc1)NC(=O)[C@H](CC(=O)O)NC(=O)CNC(=O)[C@H](CC(C)C)NC(=O)[C@@H](N)CC(C)C)C(=O)NCC(=O)N[C@@H](CCCCN)C(=O)N[C@@H](CCC(=O)O)C(=O)N[C@@H](Cc1ccccc1)C(=O)N[C@@H](CCCCN)C(=O)N[C@@H](CCCNC(=N)N)C(=O)N[C@H](C(=O)N[C@H](C(=O)N[C@@H](CCC(N)=O)C(=O)N[C@@H](CCCNC(=N)N)C(=O)N[C@H](C(=O)N[C@@H](CCCCN)C(=O)N[C@@H](CC(=O)O)C(=O)N[C@@H](Cc1ccccc1)C(=O)N[C@@H](C)C(=O)N[C@@H](CCCNC(=N)N)C(=O)N[C@@H](CC(N)=O)C(=O)N[C@@H](CC(C)C)C(=O)N[C@H](C(=O)N1CCC[C@H]1C(=O)N[C@@H](CCCNC(=N)N)C(=O)O)C(C)C)[C@@H](C)CC)C(C)C)[C@@H](C)CC [LL-34—L28A] (H-LLGDFFRKSKEKIGKEFKRIVQRIKDFARNLVPR-OH),5 µM,killed S. aureus USA300 more potently,reduced secretion of IL-6 protein,–,–
CC[C@H](C)[C@H](NC(=O)[C@H](CCCNC(=N)N)NC(=O)[C@H](CCC(N)=O)NC(=O)[C@@H](NC(=O)[C@@H](NC(=O)[C@H](CCCNC(=N)N)NC(=O)[C@H](CCCCN)NC(=O)[C@H](Cc1ccccc1)NC(=O)[C@H](CCC(=O)O)NC(=O)[C@H](CCCCN)NC(=O)CNC(=O)[C@H](C)NC(=O)[C@H](CCCCN)NC(=O)[C@H](CCC(=O)O)NC(=O)[C@H](CCCCN)NC(=O)[C@H](CO)NC(=O)[C@H](CCCCN)NC(=O)[C@H](CCCNC(=N)N)NC(=O)[C@H](Cc1ccccc1)NC(=O)[C@H](Cc1ccccc1)NC(=O)[C@H](CC(=O)O)NC(=O)CNC(=O)[C@H](CC(C)C)NC(=O)[C@@H](N)CC(C)C)[C@@H](C)CC)C(C)C)C(=O)N[C@@H](CCCCN)C(=O)N[C@@H](CC(=O)O)C(=O)N[C@@H](Cc1ccccc1)C(=O)N[C@@H](CC(C)C)C(=O)N[C@@H](CCCNC(=N)N)C(=O)N[C@@H](CC(N)=O)C(=O)N[C@@H](CC(C)C)C(=O)N[C@H](C(=O)N1CCC[C@H]1C(=O)N[C@@H](CCCNC(=N)N)C(=O)O)C(C)C [LL-34—I13A] (H-LLGDFFRKSKEKAGKEFKRIVQRIKDFLRNLVPR-OH),5 µM,killed S. aureus USA300 more potently,reduced secretion of IL-6 protein,gained antimicrobial activity,–
CC[C@H](C)[C@H](NC(=O)[C@H](CCCCN)NC(=O)[C@H](CCC(=O)O)NC(=O)[C@H](CCCCN)NC(=O)[C@H](CO)NC(=O)[C@H](CCCCN)NC(=O)[C@H](CCCNC(=N)N)NC(=O)[C@H](Cc1ccccc1)NC(=O)[C@H](Cc1ccccc1)NC(=O)[C@H](CC(=O)O)NC(=O)CNC(=O)[C@H](CC(C)C)NC(=O)[C@@H](N)CC(C)C)C(=O)NCC(=O)N[C@@H](CCCCN)C(=O)N[C@@H](CCC(=O)O)C(=O)N[C@@H](Cc1ccccc1)C(=O)N[C@@H](CCCCN)C(=O)N[C@@H](CCCNC(=N)N)C(=O)N[C@H](C(=O)N[C@H](C(=O)N[C@@H](CCC(N)=O)C(=O)N[C@@H](CCCNC(=N)N)C(=O)N[C@H](C(=O)N[C@@H](CCCCN)C(=O)N[C@@H](CC(=O)O)C(=O)N[C@@H](Cc1ccccc1)C(=O)N[C@@H](CC(C)C)C(=O)N[C@@H](CCCNC(=N)N)C(=O)N[C@@H](CC(N)=O)C(=O)N[C@@H](CC(C)C)C(=O)N[C@H](C(=O)N1CCC[C@H]1C(=O)N[C@@H](C)C(=O)O)C(C)C)[C@@H](C)CC)C(C)C)[C@@H](C)CC [LL-34—R34A] (H-LLGDFFRKSKEKIGKEFKRIVQRIKDFLRNLVPA-OH),10 µM,reduced MIC compared with the parent peptide,–,–,–
CC[C@H](C)[C@H](NC(=O)[C@H](CCCCN)NC(=O)[C@H](CCC(=O)O)NC(=O)[C@H](CCCCN)NC(=O)[C@H](CO)NC(=O)[C@H](CCCCN)NC(=O)[C@H](CCCNC(=N)N)NC(=O)[C@H](Cc1ccccc1)NC(=O)[C@H](Cc1ccccc1)NC(=O)[C@H](CC(=O)O)NC(=O)CNC(=O)[C@H](CC(C)C)NC(=O)[C@@H](N)CC(C)C)C(=O)NCC(=O)N[C@@H](CCCCN)C(=O)N[C@@H](CCC(=O)O)C(=O)N[C@@H](Cc1ccccc1)C(=O)N[C@@H](CCCCN)C(=O)N[C@@H](CCCNC(=N)N)C(=O)N[C@H](C(=O)N[C@H](C(=O)N[C@@H](CCC(N)=O)C(=O)N[C@@H](CCCNC(=N)N)C(=O)N[C@H](C(=O)N[C@@H](CCCCN)C(=O)N[C@@H](CC(=O)O)C(=O)N[C@@H](Cc1ccccc1)C(=O)N[C@@H](CC(C)C)C(=O)N[C@@H](CCCNC(=N)N)C(=O)N[C@@H](CC(N)=O)C(=O)N[C@@H](CC(C)C)C(=O)N[C@H](C(=O)N1CCC[C@H]1C(=O)N[C@@H](CCCNC(=N)N)C(=O)O)C(C)C)[C@@H](C)CC)C(C)C)[C@@H](C)CC [LL-34—parent] (H-LLGDFFRKSKEKIGKEFKRIVQRIKDFLRNLVPR-OH),5 µM,–,–,–,25 µM
